The text below walks through data of patent US9181183B2, “Prostaglandin D synthase inhibitory piperidine compounds” (Taiho Pharmaceutical Co., Ltd., priority 2010, dated 2015).

In the first assay the target is human H-PGDS (Homo sapiens, UniProt O60760). Nature of the assay: Hematopoietic prostaglandin D synthase (H-PGDS) inhibiting action, [14C]PGH2 to PGD2 conversion, TLC radioassay. The settings on record: compound 0.1 μM; inhibition rate relative to solvent control group; [14C] prostaglandin H2 10 μM, 25° C. It counts as biochemical. The method, then: The test was carried out according to the method of Urade, Y. et al. (J. Biol. Chem., 262, 3820-3825, (1987)). More specifically, a reaction mixture (49 μL) containing 100 mM Tris-HCl (pH 8.0), 1 mM reduced form glutathione, 0.1 mg/mL γ-globulin, human H-PGDS (q.s.), and a compound (0.1 μM) was preincubated at 25° C. for 5 minutes. A DMSO solution (final concentration: 1%) was added to the solvent control group. Subsequently, 1 μL of [^14C] prostaglandin H2 (final concentration: 10 μM) was added to start the reaction. One minute after the start of the reaction, 250 μL of a reaction stopper solution (diethylether/methanol/1M citric acid (30/4/1)) cooled with ice was added to stop the reaction. After the reaction was stopped, 50 μL of the upper layer portion (organic solvent phase) was applied to a TLC plate and developed at −20° C. for 45 minutes (developing solvent: diethylether/methanol/acetic acid (90/2/1)). After the TLC plate was dried and exposed to an imaging plate for 1 to 24 hours, the radioactivity corresponding to prostaglandin D2 (PGD2) was analyzed using an image analyzer (produced by Fujifilm Corporation). The area (%) occupied by the PGD2 band per lane and the inhibition rate (%) of each Example compound at 0.1 μM relative to the control group in each experiment were calculated.
Sequence of human H-PGDS (O60760 whole entry): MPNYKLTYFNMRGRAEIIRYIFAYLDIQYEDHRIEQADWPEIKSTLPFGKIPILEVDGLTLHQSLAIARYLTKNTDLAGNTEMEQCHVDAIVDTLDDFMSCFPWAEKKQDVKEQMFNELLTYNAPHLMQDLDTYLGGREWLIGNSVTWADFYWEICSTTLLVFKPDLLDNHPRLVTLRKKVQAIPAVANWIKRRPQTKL
For the molecule “N-(6-(4-morpholin-1-yl-carbonylphenyl)-benzo[d]thiazol-2-yl)-4-(pyridin-2-ylmethylene)-piperidine-1-carboxamide [Example 2]”, the “H-PGDS inh. (% at 0.1 μM)” value stood at 64.4%. On to “N-(5-(morpholin-1-yl-carbonyl)thiazol-2-yl)-4-(pyridin-2-ylmethylene)piperidine-1-carboxamide [Example 13]”, for which the “H-PGDS inh. (% at 0.1 μM)” value is reported as 48.3%.

The assay is the same for the next values; noted with them: compound 0.1 μM; inhibition rate relative to solvent control group; [14C] prostaglandin H2 10 μM, 25° C.; read-out: H-PGDS inh. (% at 0.1 μM).
With `O=C(O)c1ccc(-c2ccc(NC(=O)N3CCC(=Cc4ccccn4)CC3)cn2)cc1` [Example 28, 4-(5-(4-(pyridin-2-ylmethylene)piperidine-1-carboxamido)pyridin-2-yl)benzoic acid], the inhibition at 0.1 µM was 53.2%. Still for that read-out and setting: under `Nc1ccc2nc(NC(=O)N3CCC(=Cc4ccccn4)CC3)sc2c1` [Example 10, N-(6-aminobenzo[d]thiazol-2-yl)-4-(pyridin-2-ylmethylene)-piperidine-1-carboxamide] stands 61.9%; under `CC(F)(F)C(=O)N1CCC(NC(=O)N2CCC(=Cc3cc(F)ccc3F)CC2)CC1` [Example 40, 4-(2,5-difluorobenzylidene)-N-(1-(2,2-difluoropropanoyl)piperidin-4-yl)piperidine-1-carboxamide], 71.4%; under `O=C(Nc1ccc(NC(=O)N2CCC(=Cc3cc(F)ccc3F)CC2)cn1)c1cscn1` [Example 80, N-(5-(4-(2,5-difluorobenzylidene)piperidine-1-carboxamido)pyridin-2-yl)thiazole-4-carboxamide], 66%. `O=C(Nc1ccccn1)N1CCC(NC(=O)N2CCC(=Cc3cc(F)ccc3F)CC2)CC1` [Example 64, 4-(2,5-difluorobenzylidene)-N-(1-(pyridin-2-ylcarbamoyl)piperidin-4-yl)piperidine-1-carboxamide]: the inhibition at 0.1 µM turned out to be 51%. As to `O=C(NC1CCN(C(=O)c2ccccn2)CC1)N1CCC(=Cc2cc(F)ccc2F)CC1` [Example 51, 4-(2,5-difluorobenzylidene)-N-(1-picolinoylpiperidin-4-yl)piperidine-1-carboxamide], the inhibition at 0.1 µM came out at 50%. As for `O=C(O)c1ccc(-c2cnc(NC(=O)N3CCC(=Cc4ccccn4)CC3)s2)nc1` [Example 27, 6-(2-(4-(pyridin-2-ylmethylene)piperidine-1-carboxamido)thiazol-5-yl)nicotinic acid], the inhibition at 0.1 µM worked out at 50.2%. For the molecule `O=C(Nc1cnc2ccccc2c1)N1CCC(=Cc2ccccn2)CC1` [Example 85, 4-(pyridin-2-ylmethylene)-N-(quinolin-3-yl)piperidine-1-carboxamide], the inhibition at 0.1 µM amounted to 35%. With `O=C(Nc1ncc(CN2CCOCC2)s1)N1CCC(=Cc2cc(F)ccc2F)CC1` [Example 84, 4-(2,5-difluorobenzylidene)-N-(5-(morpholinomethyl)thiazol-2-yl)piperidine-1-carboxamide], the inhibition at 0.1 µM was 78.5%. `O=C(Nc1ccc(NC(=O)N2CCC(=Cc3cc(F)ccc3F)CC2)cc1)c1cscn1` [Example 75, N-(4-(4-(2,5-difluorobenzylidene)piperidine-1-carboxamido)phenyl)thiazole-4-carboxamide]: the inhibition at 0.1 µM turned out to be 71.2%. On to `Cc1nccn1Cc1cnc(NC(=O)N2CCC(=Cc3ccccn3)CC2)s1` [Example 83, N-(5-((2-methyl-1H-imidazol-1-yl)methyl)thiazol-2-yl)-4-(pyridin-2-ylmethylene)piperidine-1-carboxamide], for which the inhibition at 0.1 µM was 41.6%. Take `CC(C)(C)C(=O)N1CCC(NC(=O)N2CCC(=Cc3cc(F)ccc3F)CC2)CC1` [Example 46, 4-(2,5-difluorobenzylidene)-N-(1-pivaloylpiperidin-4-yl)piperidine-1-carboxamide]: the inhibition at 0.1 µM was 77.3%. Take `O=C(Nc1ccc(OCc2ccccc2)cc1)N1CCC(=Cc2ccccn2)CC1` [Example 68, N-(4-(benzyloxy)phenyl)-4-(pyridin-2-ylmethylene)piperidine-1-carboxamide]: the inhibition at 0.1 µM is 59.8%. In the case of `O=C(O)c1ccc(-c2ncc(NC(=O)N3CCC(=Cc4ccccn4)CC3)cn2)cc1` [Example 33, 4-(5-(4-(pyridin-2-ylmethylene)piperidine-1-carboxamido)pyrimidin-2-yl)benzoic acid], the inhibition at 0.1 µM stood at 50%. Turning to `O=C(Nc1ccccc1)Nc1ccc(NC(=O)N2CCC(=Cc3cc(F)ccc3F)CC2)cc1` [Example 73, 4-(2,5-difluorobenzylidene)-N-(4-(3-phenylureido)phenyl)piperidine-1-carboxamide], the inhibition at 0.1 µM is 71%. As for `O=C(NC1CCN(C(=O)c2cccc(F)c2)CC1)N1CCC(=Cc2cc(F)ccc2F)CC1` [Example 61, 4-(2,5-difluorobenzylidene)-N-(1-(3-fluorobenzoyl)piperidin-4-yl)piperidine-1-carboxamide], the inhibition at 0.1 µM was 67.7%. Turning to `O=C(Nc1ccc(N2CCCCC2)cc1)c1cnc(NC(=O)N2CCC(=Cc3ccccn3)CC2)s1` [Example 16, N-(4-(piperidin-1-yl)phenyl)-2-(4-(pyridin-2-ylmethylene)piperidine-1-carboxamido)thiazole-5-carboxamide], the inhibition at 0.1 µM is 52.7%. On to `O=C(Nc1nccs1)N1CCC(NC(=O)N2CCC(=Cc3cc(F)ccc3F)CC2)CC1` [Example 65, 4-(2,5-difluorobenzylidene)-N-(1-(thiazol-2-ylcarbamoyl)piperidin-4-yl)piperidine-1-carboxamide], for which the inhibition at 0.1 µM came out at 55.4%. As for `O=C(Nc1ncc(Cn2cncn2)s1)N1CCC(=Cc2cc(F)ccc2F)CC1` [Example 81, N-(5-((1H-1,2,4-triazol-1-yl)methyl)thiazol-2-yl)-4-(2,5-difluorobenzylidene)piperidine-1-carboxamide], the inhibition at 0.1 µM was found to be 72.8%. The same measure, in the same setting: under `O=C(Nc1ccc(Oc2ncccn2)cc1)N1CCC(=Cc2cc(F)ccc2F)CC1` [Example 70, 4-(2,5-difluorobenzylidene)-N-(4-(pyrimidin-2-yloxy)phenyl)piperidine-1-carboxamide] stands 84.2%; under `O=C(NS(=O)(=O)c1ccccc1)c1ccc(-c2cnc(NC(=O)N3CCC(=Cc4ccccn4)CC3)s2)cc1` [Example 24, N-(5-(4-(phenylsulfonylcarbamoyl)phenyl)thiazol-2-yl)-4-(pyridin-2-ylmethylene)piperidine-1-carboxamide], 68.2%; under `COc1ccc(-c2ccc3nc(NC(=O)N4CCC(=Cc5ccccn5)CC4)sc3c2)cn1` [Example 7, N-(6-(2-methoxypyridin-5-yl)-benzo[d]thiazol-2-yl)-4-(pyridin-2-ylmethylene)-piperidine-1-carboxamide], 74.2%. As for `O=C(NC1CCN(c2ccc(CCn3ccnn3)cc2)CC1)N1CCC(=Cc2cc(F)ccc2F)CC1` [Example 34, N-(1-(4-(2-(1H-1,2,3-triazol-1-yl)ethyl)phenyl)piperidin-4-yl)-4-(2,5-difluorobenzylidene)piperidine-1-carboxamide], the inhibition at 0.1 µM stood at 77.8%.

Regarding `O=C(Nc1ccc(Nc2ccccc2)cc1)N1CCC(=Cc2cc(F)ccc2F)CC1` [Example 72, 4-(2,5-difluorobenzylidene)-N-(4-(phenylamino)phenyl)piperidine-1-carboxamide], the inhibition at 0.1 µM came out at 68.7%. For the molecule `O=C(Nc1ncc(C(=O)N2CCOCC2)s1)N1CCC(=Cc2cc(F)ccc2F)CC1` [Example 58, 4-(2,5-difluorobenzylidene)-N-(5-(morpholine-4-carbonyl)thiazol-2-yl)piperidine-1-carboxamide], the inhibition at 0.1 µM was found to be 80.8%.
